Measured values as given in patent US20040248871A1, “Use of lysyl oxidase inhibitors for cell culture and tissue engineering” (priority 2001, published 2004).
Several values for one entry are separate records, joined by “and”; a condition that tells them apart may be missing. Equal values may be shown once.

Legend:
[1] = system: chondrocytes from the sternum of chicken embryos; assay: Dedifferentiation of chicken embryo chondrocytes in two-dimensional culture on plastic (fluorography of 14C-proline labelled collagens, morphology); assay type: cell-based
Source text: a) The experimental chondrocyte culture model is the one with the culture of chicken embryo chondrocytes on plastic in two dimensions. The embryonic state of the cells allows a high level of synthesis of the collagens, unlike the adult chondrocytes. The chicken sternum from which the chondrocytes originates Makes it possible to obtain two pure sub-populations of chondrocytes capable or not capable of subsequently hypertrophying (respectively, the chondrocytes of the cranial or caudal section of the sternum). […] The results which are described always distinguish the sub-population of the chondrocytes studied.
The cultures with 4 mM L-glutamine antibiotics, and 25 μg/ml ascorbate (factor necessary for the stability of the secreted collagen triple helix units) are continued for 2 weeks in the presence or absence of 10% serum, optionally replaced by 100 ng/ml insulin, and by 50 μg/ml βAPN. The absence of serum necessitates the addition of protective agents (1 mM cysteine and 1 mM pyruvate). A day before taking the samples, 10 μCi of 14C Proline is added to the cultures the lawns or media of which are then pepsinated (0.2 mg pepsin/ml/pH 4/24 hours) and subjected to electrophoretic (SDS PAGE gradient of 4.5 at 15% acrylamide) then fluorographic analysis. The fluorographs then reveal the only pepsin-resistant protein bands, essentially the collagens and lipocalines (proteins with lipid transport). The known position of these bands allows the indication of the dedifferentiation of the cells by the appearance of the α2 I chain of collagen I associated with the lowering of the synthesis of the collagens of cartilage type.
βAPN (50 μg/ml) is added immediately upon inoculation, to the culture medium which is renewed every 2 days and applied to the cultures of chondrocytes as well as to those of fibroblasts then of keratinocytes during the formation of the reconstructed skin. […]

fibroblasts = assay: Fibroblasts cultured in monolayer: cell count and MTT viability test; assay type: cell-based, human
Source text: The support of the reconstructed skin model is constituted by a dermal substrate (DS) with a base of collagen-glycosaminoglycan cross-linked by chitosan according to the technique published by Duplan-Perrat et al (J Invest Dermatol 2000 114:365). Fibroblasts are inoculated the inside of the DS in order to obtain an equivalent dermis. The reconstituted skin (RS) is obtained by inoculating the keratinocytes after 15 days (day 15) of culture in equivalent dermis. The dermal fibroblasts are obtained from explants of human prepuces after dermal-epidermal separation and cultured in monolayer in DMEM medium (Sigma) supplemented by 10% fœtal calf serum, 4 mM L-glutamine, EGF (Austral Biologic) at 10 ng/ml, penicillin at 100 UI/ml, gentamicin at 100 μg/ml and amphotericin B at 1 μg/ml. The keratinocytes are from a human skin biopsy sample after dermal-epidermal separation by trypsination. The cells are inoculated nutritive layers (irradiated fibroblasts) and cultured in DMEM and HAM F12 at 30% supplemented with fœetal calf serum at 10%, EGF at 10 ng/ml, hydrocortisone at 1.6 ng/ml, umulin at 0.12 UI/ml, choleratoxin at 0.1 nM, triiodothyronine at 0.2 μM, adenine at 24 μg/ml, 4 mM L-Glutamine, penicillin at 100 UI/ml, gentamicin at 100 μg/ml and amphotericin B at 1 μg/ml.
In fact, the number of these cells is reduced by approximately 50% compared to the control when they are cultured in the presence of 600 μg/ml of βAPN. […] The results of the MTT viability test confirm those of the cell count. […] It must be emphasized that βAPN at 200 μg/ml can optionally cause an increase in cell activity (proliferation and viability) on the fibroblasts inoculated at a low density, and on the fibroblasts and the keratinocytes inoculated at a high density.

[2] = system: chondrocytes, fibroblasts, keratinocytes; assay: Toxicity and multiplication of the cells in culture at the standard concentration; assay type: cell-based; settings: 50 μg/ml
Experimental: βAPN (50 μg/ml) is added immediately upon inoculation, to the culture medium which is renewed every 2 days and applied to the cultures of chondrocytes as well as to those of fibroblasts then of keratinocytes during the formation of the reconstructed skin.

Lysyl oxidase = Lysyl oxidase activity assay with tritiated elastin substrate on culture media of chicken embryo chondrocytes; assay type: biochemical
Experimental: The Lysyl oxidase activity was assayed with 300,000 dpm of labelled elastin on the Lysine, substrate of the enzyme (Shackelton and Hulmes Anal. Biochem. (1990) 185: 359-362). The determination of the presence of Lysyl oxidases in the cultures of chondrocytes is carried out according to the standard methods of immunodecoration of the supports onto which the bands separated from the proteins extracted from the corresponding culture media or from the cell lawns have been transferred.
Lysyl oxidase activities (inhibited by βAPN and assayed by the production of tritiated water) are secreted in the culture media. The specific activity recorded in the media is stronger on the 7th day of culture than on the 13th day. The extracellular matrix being richer in natural collagenic substrates of the Lysyl oxidase activity on the 13th day of culture, it would thus retain the enzyme in the cell lawn.

[3] = system: hypertrophic chondrocytes of chicken embryos; assay: Reversibility of effects on bridgings of collagen IX chains in cell lawn of hypertrophic chondrocytes (fluorography); assay type: cell-based; settings: washings with PBS then medium without βAPN
Experimental: Chondrocytes of the cranial section of the sternum were inoculated at a high concentration (5 million cells per P35 Petri dish) then subjected to 24 hours of radio-labelling with proline 14C on the 7th, 14th and […] day of culture (respectively day 7, day 14 and day 21).
βAPN was present (+) or absent. (−) for the entire duration of the culture, or present only during the first week ((+)).

[4] = system: deep chondrocytes of the cotyloid ligament; assay: Human cotyloid cartilage chondrocytes in 2D culture on plastic; assay type: cell-based; settings: hyaluronidase in extraction medium, two weeks, serum
Source text: b) The cultures of normal human chondrocytes originate from cartilages taken during hip prosthesis or ligamentoplasty surgery, then subjected to enzymatic digestion. These cartilage biopsies are considered as res nullus.
The chondrocytes extracted from the cotyloid ligament have been used for the two-dimensional culture on plastic in the presence of BAPN: the cultures obtained after enzymatic digestion of the cartilages in the presence or absence of hyaluronidase were compared (FIGS. 4 and 5).
The 24-hour radio-labellings with the 14C proline were carried out on the 2nd, 7th and 14th day of culture in the presence of serum and βAPN (day 2, day 7 and day 14 respectively). The pepsinated extracts of culture medium and cell lawn were subjected to electrophoresis then fluorography.
The superficial areas (even numbers) and deep areas (odd numbers) of the cotyloid cartilage were separated before being subjected to enzymatic digestion in the presence or absence of hyaluronidase.

N#CCCN [βAPN, β-aminopropionitrile]
effectiveness against dedifferentiation of the chondrocytes ([1]; 50 μg/ml, after 2 weeks of culture): total
biochemical dedifferentiation of the chondrocytes (collagen I secreted, stopping of the synthesis of collagen X) ([1]; 50 μg/ml, cranial chondrocytes, in the presence of serum, 2 weeks, 2D on plastic): totally inhibited
expression of collagen X by the hypertrophic (cranial) chondrocytes ([1]; after 3 days of culture, in the presence of serum, media and cell lawns): allows the normal expression of collagen X
proliferation of the fibroblasts (fibroblasts; 200 μg/ml): slightly increased
effect on the viability and the multiplication (fibroblasts; 200 μg/ml, isolated cultures): little effect
reduction of the number of cells compared to the control (fibroblasts; 600 μg/ml): approximately 50%
concentration with inhibiting effect on proliferation (fibroblasts; cell count and MTT): greater than 500 μg/ml
toxic effect on cells at confluence (fibroblasts; up to 800 μg/ml): no toxic effect
toxicity for the cells [2]: not toxic
dpm + βAPN (Lysyl oxidase activity assay) (Lysyl oxidase; Experiment 1, substrate no. 1, culture − FCS, + cys, Day 3, caudal chondrocytes, 15% medium P35): 674 dpm and 718 dpm
dpm + βAPN (Lysyl oxidase activity assay) (Lysyl oxidase; Experiment 2, substrate no. 2, culture + FCS, − cys, Day 7, caudal chondrocytes, 25% medium P35): 5296 dpm and 6210 dpm
dpm + βAPN (Lysyl oxidase activity assay) (Lysyl oxidase; Experiment 2, substrate no. 2, culture + FCS, − cys, Day 7, cranial chondrocytes, 100% medium P35): 5800 dpm and 6536 dpm
dpm + βAPN (Lysyl oxidase activity assay) (Lysyl oxidase; Experiment 2, substrate no. 2, culture + FCS, − cys, Day 13, caudal chondrocytes, 75% medium P35): 4344 dpm and 4702 dpm
dpm + βAPN (Lysyl oxidase activity assay) (Lysyl oxidase; Experiment 2, substrate no. 2, culture + FCS, − cys, Day 13, cranial chondrocytes, 100% medium P35): 4580 dpm and 4618 dpm
reversibility of the modifications in the bridgings between chains of collagen IX after elimination of βAPN [3]: ≤ 6 days
preservation of morphology and phenotype (matrix of cartilaginous type, without collagen I) [4]: preserving their morphology and their phenotype
